Reference: paper PMC10460844, “Real‐Time Monitoring of Multitarget Antimicrobial Mechanisms of Peptoids Using Label‐Free Imaging with Optical Diffraction Tomography” (Advanced Science, 2023)
Square brackets hold non-standard residues; d marks the D form. Peptide text beside a SMILES is read from it. Gly(N(CH2)2(3-indolyl)) = O=C(O)CNCCc1c[nH]c2ccccc12; Nspe = C[C@H](NCC(=O)O)c1ccccc1; Nlys = NCCCCNCC(=O)O

What was measured:
[1] = Analytical reversed-phase HPLC elution (hydrophobicity); type: physicochemical; settings: Table S1; analytical RP-HPLC, SunFire C18, water/ACN + 0.1% TFA, 5 to 100% B linear over 30 min, 1 mL/min, UV 220 nm; approximate comparison of hydrophobicity
Experimental: 7. HPLC chromatogram, retention time (tR), and LC-MS data
HPLC analysis of peptoids was conducted using a Waters HPLC system equipped with a Waters 2489 UV/Visible Detector, 1525 Binary HPLC Pump, 2707 Autosampler, 5CH column oven, and a C18 column (SunFire C18, 4.6 × 250 mm, 5 μm; Waters Corp., Milford, MA, USA). The mobile phases were deionized water (A, with + 0.1% TFA) and acetonitrile (ACN; B, with + 0.1% TFA). Before sample injection, the column was conditioned with 5% B for 10 min. Then, the mobile phase was maintained at 5% B for 2 min, followed by increasing B to 100% using a linear gradient over 30 min. At this point, 100% B was maintained for 5 additional min. The flow rate of the mobile phase was 1 mL/min. The sample was detected by measuring absorbance at 220 nm. […]

rat erythrocytes = test: Hemolysis assay; type: cell-based; settings: for HC10 / HC50: pH 7.4
Experimental: The hemolysis assay was performed using rat erythrocytes in phosphate‐buffered saline (PBS), as reported by Mendes et al.^[ [45] ^] Animal studies were approved by the Laboratory Animal Resource Center of Gwangju Institute of Science and Technology. Blood was collected from a 13‐week‐old male Sprague‐Dawley rat in tubes containing 158 USP units of sodium heparin to prevent coagulation and centrifuged at 1000 rpm for 10 min at 4 °C. Plasma was removed carefully and erythrocyte pellets were washed three times with PBS (35 mM phosphate, pH 7.4, 150 mM NaCl). Next, 150 µL of a 10% erythrocyte suspension was mixed with 50 µL of serially diluted peptoids (0–100 µM) in a 96‐well black polypropylene plates (Greiner, Kremsmünster, Austria). Untreated erythrocytes and cells lysed by the addition of 1% Triton X‐100 were used as negative and positive controls, respectively, with the 1% Triton X‐100‐treated wells being accepted to represent 100% hemolysis. The reaction mixture was incubated at 37 °C for 60 min, and the plates were centrifuged at 1000 rpm for 15 min. Aliquots (150 µL) of the supernatant were transferred to fresh 96‐well plates, and the absorbance of each well was measured at 540 nm using a microplate reader. Hemolysis induced by peptoids was calculated as the percentage value of Triton X‐100 lysed cells. The percentage of hemolysis by the extracts was calculated according to the following formula: % hemolysis = [(Abs 540 nm in the peptoid solution – Abs 540 nm in PBS) / (Abs 540 nm in 1% Triton X‐100 – Abs 540 nm in PBS)] × 100. HC10 and HC50 were defined as the peptoid concentrations that caused 10% and 50% hemolysis in rat erythrocytes, respectively. H max indicates the percentage of hemolysis observed at the maximum peptoid concentration, 100 µM throughout this study.

Row | HPLC elution [1] [% MeCN] | SMILES | Hmax (100 µM) (rat erythrocytes) [%] | HC10 (rat erythrocytes) [µM] | HC50 (rat erythrocytes) [µM]
1 | 50.8 | C[C@@H](c1ccccc1)N(CC(N)=O)C(=O)CN(C(=O)CN(CCCCN)C(=O)CN(C(=O)CN(CCCCN)C(=O)CN(CCCCN)C(=O)CN(CCc1c[nH]c2ccccc12)C(=O)CN(C(=O)CN(CCCCN)C(=O)CN(C(=O)CN(C(=O)CNCCCCN)[C@@H](C)c1ccccc1)[C@@H](C)c1ccccc1)[C@@H](C)c1ccccc1)[C@@H](C)c1ccccc1)[C@@H](C)c1ccccc1 [peptoid 25] | 2.7±0.4 | > 100 | > 100
2 | 49.5 | C[C@@H](c1ccccc1)N(CC(N)=O)C(=O)CN(C(=O)CN(CCCCN)C(=O)CN(C(=O)CN(C(=O)CN(CCCCN)C(=O)CN(CCc1c[nH]c2ccccc12)C(=O)CN(CCCCN)C(=O)CN(CCCCN)C(=O)CN(C(=O)CN(C(=O)CNCCCCN)[C@@H](C)c1ccccc1)[C@@H](C)c1ccccc1)[C@@H](C)c1ccccc1)[C@@H](C)c1ccccc1)[C@@H](C)c1ccccc1 [peptoid 26] | 0.7±0.1 | > 100 | > 100
3 | 50.7 | C[C@@H](c1ccccc1)N(CC(N)=O)C(=O)CN(C(=O)CN(CCCCN)C(=O)CN(C(=O)CN(C(=O)CN(CCCCN)C(=O)CN(CCc1c[nH]c2ccccc12)C(=O)CN(C(=O)CN(CCCCN)C(=O)CN(C(=O)CN(CCCCN)C(=O)CNCCCCN)[C@@H](C)c1ccccc1)[C@@H](C)c1ccccc1)[C@@H](C)c1ccccc1)[C@@H](C)c1ccccc1)[C@@H](C)c1ccccc1 [peptoid 27] | 5.9±0.2 | > 100 | > 100
4 | 48.6 | C[C@@H](c1ccccc1)N(CC(=O)N(CCCCN)CC(=O)N(CCCCN)CC(=O)N(CCc1c[nH]c2ccccc12)CC(=O)N(CCc1c[nH]c2ccccc12)CC(N)=O)C(=O)CN(CCCCN)C(=O)CN(C(=O)CN(C(=O)CN(CCCCN)C(=O)CN(C(=O)CN(C(=O)CNCCCCN)[C@@H](C)c1ccccc1)[C@@H](C)c1ccccc1)[C@@H](C)c1ccccc1)[C@@H](C)c1ccccc1 [peptoid 28] (H-[Nlys][Nspe][Nspe][Nlys][Nspe][Nspe][Nlys][Nspe][Nlys][Nlys][Gly(N(CH2)2(3-indolyl))][Gly(N(CH2)2(3-indolyl))]-NH2) | 8.9±1.4 | > 100 | > 100

The next lines start with the compound.

Row | SMILES | HPLC elution [1] [% MeCN] | Hmax (100 µM) (rat erythrocytes) [%] | HC10 (rat erythrocytes) [µM] | HC50 (rat erythrocytes) [µM]
5 | C[C@@H](c1ccccc1)N(CC(=O)N(CCCCN)CC(=O)N(CC(=O)N(CC(=O)N(CCCCN)CC(=O)N(CCc1c[nH]c2ccccc12)CC(=O)N(CCc1c[nH]c2ccccc12)CC(N)=O)[C@@H](C)c1ccccc1)[C@@H](C)c1ccccc1)C(=O)CN(C(=O)CN(CCCCN)C(=O)CN(CCc1c[nH]c2ccccc12)C(=O)CN(CCc1c[nH]c2ccccc12)C(=O)CNCCCCN)[C@@H](C)c1ccccc1 [peptoid 18] (H-[Nlys][Gly(N(CH2)2(3-indolyl))][Gly(N(CH2)2(3-indolyl))][Nlys][Nspe][Nspe][Nlys][Nspe][Nspe][Nlys][Gly(N(CH2)2(3-indolyl))][Gly(N(CH2)2(3-indolyl))]-NH2) | 53.8 | 103.5±4.3 | 14.3 | 37.8
6 | C[C@@H](c1ccccc1)N(CC(=O)N(CCCCN)CC(=O)N(CC(=O)N(CC(=O)N(CCCCN)CC(=O)N(CCc1c[nH]c2ccccc12)CC(=O)N(CCc1c[nH]c2ccccc12)CC(=O)N(CCCCN)CC(=O)N(CCc1c[nH]c2ccccc12)CC(=O)N(CCc1c[nH]c2ccccc12)CC(N)=O)[C@@H](C)c1ccccc1)[C@@H](C)c1ccccc1)C(=O)CN(C(=O)CNCCCCN)[C@@H](C)c1ccccc1 [peptoid 19] (H-[Nlys][Nspe][Nspe][Nlys][Nspe][Nspe][Nlys][Gly(N(CH2)2(3-indolyl))][Gly(N(CH2)2(3-indolyl))][Nlys][Gly(N(CH2)2(3-indolyl))][Gly(N(CH2)2(3-indolyl))]-NH2) | 52.8 | 101.5±1.3 | 3.8 | 12.5
7 | C[C@@H](c1ccccc1)N(CC(N)=O)C(=O)CN(C(=O)CN(CCCCN)C(=O)CN(CCc1c[nH]c2ccccc12)C(=O)CN(CCc1c[nH]c2ccccc12)C(=O)CN(CCCCN)C(=O)CN(CCc1c[nH]c2ccccc12)C(=O)CN(CCc1c[nH]c2ccccc12)C(=O)CN(CCCCN)C(=O)CN(C(=O)CN(C(=O)CNCCCCN)[C@@H](C)c1ccccc1)[C@@H](C)c1ccccc1)[C@@H](C)c1ccccc1 [peptoid 20] | 52.7 | 106.7±3.5 | 8.2 | 33.9
8 | C[C@@H](c1ccccc1)N(CC(N)=O)C(=O)CN(C(=O)CN(CCCCN)C(=O)CN(C(=O)CN(C(=O)CN(CCCCN)C(=O)CN(CCc1c[nH]c2ccccc12)C(=O)CN(CCc1c[nH]c2ccccc12)C(=O)CN(CCCCN)C(=O)CN(CCc1c[nH]c2ccccc12)C(=O)CN(CCc1c[nH]c2ccccc12)C(=O)CNCCCCN)[C@@H](C)c1ccccc1)[C@@H](C)c1ccccc1)[C@@H](C)c1ccccc1 [peptoid 21] | 53.2 | 83.7±2.0 | 23.2 | 64.9
9 | C[C@@H](c1ccccc1)N(CC(=O)N(CCc1c[nH]c2ccccc12)CC(=O)N(CCCCN)CC(=O)N(CC(=O)N(CCc1c[nH]c2ccccc12)CC(=O)N(CCCCN)CC(=O)N(CC(=O)N(CCc1c[nH]c2ccccc12)CC(=O)N(CCCCN)CC(=O)N(CC(=O)N(CCc1c[nH]c2ccccc12)CC(N)=O)[C@@H](C)c1ccccc1)[C@@H](C)c1ccccc1)[C@@H](C)c1ccccc1)C(=O)CNCCCCN [peptoid 22] (H-[Nlys][Nspe][Gly(N(CH2)2(3-indolyl))][Nlys][Nspe][Gly(N(CH2)2(3-indolyl))][Nlys][Nspe][Gly(N(CH2)2(3-indolyl))][Nlys][Nspe][Gly(N(CH2)2(3-indolyl))]-NH2) | 54.1 | 108.6±1.1 | 6.9 | 19.4
10 | NCCCCNCC(=O)N(CCc1c[nH]c2ccccc12)CC(=O)N(CCc1c[nH]c2ccccc12)CC(=O)N(CCCCN)CC(=O)N(CCc1c[nH]c2ccccc12)CC(=O)N(CCc1c[nH]c2ccccc12)CC(=O)N(CCCCN)CC(=O)N(CCc1c[nH]c2ccccc12)CC(=O)N(CCc1c[nH]c2ccccc12)CC(=O)N(CCCCN)CC(=O)N(CCc1c[nH]c2ccccc12)CC(=O)N(CCc1c[nH]c2ccccc12)CC(N)=O [peptoid 23] (H-[Nlys][Gly(N(CH2)2(3-indolyl))][Gly(N(CH2)2(3-indolyl))][Nlys][Gly(N(CH2)2(3-indolyl))][Gly(N(CH2)2(3-indolyl))][Nlys][Gly(N(CH2)2(3-indolyl))][Gly(N(CH2)2(3-indolyl))][Nlys][Gly(N(CH2)2(3-indolyl))][Gly(N(CH2)2(3-indolyl))]-NH2) | 53.0 | 72.2±0.3 | 17.1 | 45.2
11 | C[C@@H](c1ccccc1)N(CC(N)=O)C(=O)CN(CCCCN)C(=O)CN(CCCCN)C(=O)CN(C(=O)CN(C(=O)CN(CCCCN)C(=O)CN(CCc1c[nH]c2ccccc12)C(=O)CN(C(=O)CN(CCCCN)C(=O)CN(C(=O)CN(C(=O)CNCCCCN)[C@@H](C)c1ccccc1)[C@@H](C)c1ccccc1)[C@@H](C)c1ccccc1)[C@@H](C)c1ccccc1)[C@@H](C)c1ccccc1 [peptoid 24] | 49.4 | 1.5±0.0 | > 100 | > 100
